Source: patent publication US8455500B2, “3-hydroxy-5-arylisoxazole derivative” (Mochida Pharmaceutical Co., Ltd., priority 2009, dated 2013)

Target: T1, GPR40 of human origin (Homo sapiens, UniProt O14842)
T1 construct: expressed in transfected cells
Experiment: Agonist action on GPR40 of human origin (Ca2+ fluorescence in a CHO cell strain stably expressing GPR40)
Format: cell-based
Conditions: Ca2+ concentration fluctuation, fluorescence intensity
Description: A CHO cell strain stably expressing GPR40 of human origin was used to determine the agonist action of a subject compound. This cell strain was seeded in a clear bottom 96 well plate at 4×10^4 cells/100 μL/well. The cell strain was cultured in a CO2 incubator overnight using a Ham's F-12 medium containing a 10% fetal bovine serum, 100 U/mL penicillin, 0.1 mg/mL streptomycin, and 400 μg/mL Geneticin. Calcium 4 Assay Kit (Molecular Devices) was used as a fluorescent calcium indicator. One mL of 77 mg/mL probenecid (Invitrogen) was added to 100 mL of a calcium indicator solution to prepare a solution (loading solution) mixed with a 20 mM HEPES-containing Hanks' balanced salt solution (HBSS) in equal proportions. 200 μL of the loading solution was added to the cells from which the culture solution was removed, and the cells were cultured in a CO2 incubator for 1 hour. The subject compound was diluted with a 20 mM HEPES-containing HBSS and was added to the cells by 50 μL, and the fluctuation of the Ca^2+ concentration was measured by an intracellular ion analyzer. The EC50 value of the subject compound was calculated using the dose-response curve of fluorescence intensity variation.

T1 sequence (O14842 whole entry): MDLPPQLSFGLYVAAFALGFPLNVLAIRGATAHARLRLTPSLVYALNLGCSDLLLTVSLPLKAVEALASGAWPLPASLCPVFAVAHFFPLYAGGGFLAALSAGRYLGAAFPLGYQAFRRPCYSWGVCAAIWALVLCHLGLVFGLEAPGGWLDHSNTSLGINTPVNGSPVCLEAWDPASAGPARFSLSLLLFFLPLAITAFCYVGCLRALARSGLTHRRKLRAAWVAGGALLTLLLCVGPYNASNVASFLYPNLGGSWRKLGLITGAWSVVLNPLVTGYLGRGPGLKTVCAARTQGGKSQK

SMILES	EC50 [nM]
Oc1cc(-c2ccc(OC3CCc4c(-c5ccc6cc[nH]c6c5)cccc43)cc2)on1 (stereo not drawn) [Example 35, 5-(4-(2,3-dihydro-4-(1H-indol-6-yl)-1H-inden-1-yloxy)phenyl)isoxazol-3-ol]	300 to 3000
Oc1cc(-c2ccc(OC3CCc4c(Cc5ccccc5)cccc43)cc2)on1 (stereo not drawn) [Example 30, 5-(4-(4-benzyl-2,3-dihydro-1H-inden-1-yloxy)phenyl)isoxazol-3-ol]	< 300
Cc1cc(OCCCN2CCCC2=O)cc(C)c1-c1cccc(COc2ccc(-c3cc(O)no3)cc2)c1 [Example 43, 1-[3-[4-[3-[[4-(3-hydroxy-1,2-oxazol-5-yl)phenoxy]methyl]phenyl]-3,5-dimethylphenoxy]propyl]pyrrolidin-2-one]	< 300
Cc1cc(OCCC(C)(C)O)nc(C)c1-c1cccc(COc2ccc(-c3cc(O)no3)cc2)c1 [Example 41, 5-(4-((3-(2,4-dimethyl-6-(3-hydroxy-3-methylbutoxy)pyridin-3-yl)phenyl)methoxy)phenyl)isoxazol-3-ol]	< 300
Cc1cc(-c2cccc(COc3ccc(-c4cc(O)no4)cc3)c2C)c(C)nc1OCCC(C)(C)O [Example 47, 5-[4-[[3-[6-(3-hydroxy-3-methylbutoxy)-2,5-dimethylpyridin-3-yl]-2-methylphenyl]methoxy]phenyl]-1,2-oxazol-3-ol]	< 300
Oc1cc(-c2ccc(OC3Cc4ccccc4C3)cc2)on1 [Example 2, 5-(4-(2,3-dihydro-1H-inden-2-yloxy)phenyl)isoxazol-3-ol]	< 300
Oc1cc(-c2ccc(OC3CCc4c3ccc(Cl)c4Cl)cc2)on1 (stereo not drawn) [Example 19, 5-(4-(4,5-dichloro-2,3-dihydro-1H-inden-1-yloxy)phenyl)isoxazol-3-ol]	300 to 3000
Cc1cc(OCCCS(C)(=O)=O)cc(C)c1-c1cccc(COc2ccc(-c3cc(O)no3)cc2)c1 [Example 42, 5-[4-[[3-[2,6-dimethyl-4-(3-methylsulfonylpropoxy)phenyl]phenyl]methoxy]phenyl]-1,2-oxazol-3-ol]	< 300
COc1cccc(-c2cccc3c2CCC3Oc2ccc(-c3cc(O)no3)cc2)c1 (stereo not drawn) [Example 21, 5-(4-(2,3-dihydro-4-(3-methoxyphenyl)-1H-inden-1-yloxy)phenyl)isoxazol-3-ol]	< 300
Cc1cc(OCCC(C)(C)O)cc(C)c1-c1cccc2c1CCC2Oc1ccc(-c2cc(O)no2)cc1 (stereo not drawn) [Example 37, 5-[4-[[4-[4-(3-hydroxy-3-methylbutoxy)-2,6-dimethylphenyl]-2,3-dihydro-1H-inden-1-yl]oxy]phenyl]-1,2-oxazol-3-ol]	< 300
Cc1cc(OCC[C@@H](C)O)cc(C)c1-c1cccc2c1CCC2Oc1ccc(-c2cc(O)no2)cc1 (stereo partly drawn) [Example 36, 5-[4-[[4-[4-[(3R)-3-hydroxybutoxy]-2,6-dimethylphenyl]-2,3-dihydro-1H-inden-1-yl]oxy]phenyl]-1,2-oxazol-3-ol]	< 300
Oc1cc(-c2ccc(OC3CCc4cc(Cl)ccc43)cc2)on1 (stereo not drawn) [Example 13, 5-(4-(5-chloro-2,3-dihydro-1H-inden-1-yloxy)phenyl)isoxazol-3-ol]	300 to 3000
Oc1cc(-c2ccc(OC3CCc4c(-c5ccc6c(c5)OCCO6)cccc43)cc2)on1 (stereo not drawn) [Example 34, 5-(4-(2,3-dihydro-4-(1,4-benzodioxan-6-yl)-1H-inden-1-yloxy)phenyl)isoxazol-3-ol]	300 to 3000
Cc1cc(OCCC(C)(C)O)nc(C)c1-c1cccc2c1CCC2Oc1ccc(-c2cc(O)no2)cc1 (stereo not drawn) [Example 24, 5-(4-(4-(6-(3-hydroxy-3-methylbutoxy)-2,4-dimethylpyridin-3-yl)-2,3-dihydro-1H-inden-1-yloxy)phenyl)isoxazol-3-ol]	< 300
COc1ncccc1-c1cccc2c1CCC2Oc1ccc(-c2cc(O)no2)cc1 (stereo not drawn) [Example 23, 5-(4-(2,3-dihydro-4-(2-methoxypyridin-3-yl)-1H-inden-1-yloxy)phenyl)isoxazol-3-ol]	< 300
N#Cc1cccc2c1CCC2Oc1ccc(-c2cc(O)no2)cc1 (stereo not drawn) [Example 12, 5-(4-(4-cyano-2,3-dihydro-1H-inden-1-yloxy)phenyl)isoxazol-3-ol]	300 to 3000
Oc1cc(-c2ccc(OC3CCc4cc(Br)ccc43)cc2)on1 (stereo not drawn) [Example 14, 5-(4-(5-bromo-2,3-dihydro-1H-inden-1-yloxy)phenyl)isoxazol-3-ol]	300 to 3000
Oc1cc(-c2ccc(OC3CCc4c(Cl)cccc43)cc2)on1 (stereo not drawn) [Example 11, 5-(4-(4-chloro-2,3-dihydro-1H-inden-1-yloxy)phenyl)isoxazol-3-ol]	< 300
Cc1cc(OCCC(C)(C)O)cc(C)c1-c1cccc(COc2ccc(-c3cc(O)no3)cc2)c1C [Example 45, 5-[4-[[3-[4-(3-hydroxy-3-methylbutoxy)-2,6-dimethylphenyl]-2-methylphenyl]methoxy]phenyl]-1,2-oxazol-3-ol]	< 300
Cc1cc(OC[C@H](O)CO)cc(C)c1-c1cccc(COc2ccc(-c3cc(O)no3)cc2)c1C [Example 44, (2R)-3-[4-[3-[[4-(3-hydroxy-1,2-oxazol-5-yl)phenoxy]methyl]-2-methylphenyl]-3,5-dimethylphenoxy]propane-1,2-diol]	< 300
Oc1cc(-c2ccc(OC3CCc4c(Oc5ccccc5)cccc43)cc2)on1 (stereo not drawn) [Example 26, 5-(4-(2,3-dihydro-4-phenoxy-1H-inden-1-yloxy)phenyl)isoxazol-3-ol]	< 300
Oc1cc(-c2ccc(OC3CCc4c(OCc5ccccc5C(F)(F)F)cccc43)cc2)on1 (stereo not drawn) [Example 29, 5-(4-(2,3-dihydro-4-(2-(trifluoromethyl)benzyloxy)-1H-inden-1-yloxy)phenyl)isoxazol-3-ol]	300 to 3000
Cc1nc(OCCC(C)(C)O)ccc1-c1cccc(COc2ccc(-c3cc(O)no3)cc2)c1C [Example 39, 5-(4-((3-(6-(3-hydroxy-3-methylbutoxy)-2-methylpyridin-3-yl)-2-methylphenyl)methoxy)phenyl)isoxazol-3-ol]	< 300
Cc1cc(OCCC(C)(C)O)ncc1-c1cccc(COc2ccc(-c3cc(O)no3)cc2)c1C [Example 38, 5-(4-((3-(6-(3-hydroxy-3-methylbutoxy)-4-methylpyridin-3-yl)-2-methylphenyl)methoxy)phenyl)isoxazol-3-ol]	< 300
Cc1cc(OCCC(C)(C)O)nc(C)c1-c1cccc(COc2ccc(-c3cc(O)no3)cc2)c1C [Example 40, 5-(4-((3-(2,4-dimethyl-6-(3-hydroxy-3-methylbutoxy)pyridin-3-yl)-2-methylphenyl)methoxy)phenyl)isoxazol-3-ol]	< 300
Oc1cc(-c2ccc(NC3CCc4cc(Cl)ccc43)cc2)on1 (stereo not drawn) [Example 31, 5-(4-(5-chloro-2,3-dihydro-1H-inden-1-ylamino)phenyl)isoxazol-3-ol]	300 to 3000
Cc1c(COc2ccc(-c3cc(O)no3)cc2)cccc1-c1cnc(OCCC(C)(C)O)c(C)c1C [Example 46, 5-[4-[[3-[6-(3-hydroxy-3-methylbutoxy)-4,5-dimethylpyridin-3-yl]-2-methylphenyl]methoxy]phenyl]-1,2-oxazol-3-ol]	< 300
